In patent US20240109918A1, “HETEROCYCLIC COMPOUNDS AND USES THEREOF” (Kumquat Biosciences Inc., priority 2022, published 2024) one finds IC50 data, which are given here for 16 compounds.

The target in one assay is T1, KRASwt (Homo sapiens, UniProt P01116).
T1 construct: made in house; host or cells: E. coli BL21 (DE3)
The assay is described as follows: Bio-Biochem-PPI-HTRF Ras-SOS1 interaction assay (KRAS wt). The assay is classed as biochemical. The following applies: 5 nM. Here is the method:
(§1) The assay buffer can contain −5 mM HEPES pH 7.4, ˜150 mM NaCl, ˜ 1 mM DTT, 0.05% BSA and 0.0025% (v/v) Igepal. A Ras working solution is prepared in an assay buffer containing typically a suitable amount of the protein construct (e.g., GST-tagged K-Ras mutant) and the FRET donor (e.g., antiGST-Eu(K) from Cisbio, France). A SOS1 working solution is prepared in an assay buffer containing suitable amount of the protein construct (e.g., His-hSOS1) and the FRET acceptor (e.g., anti-6His-XL665 from Cisbio, France). A suitable amount of the protein construct will depend on the range of activity or range of IC50 values being detected or under investigation. For detecting IC50 within a range of 500 nM, the protein constructs of the same range of molarity can be utilized. […] A fixed volume of DMSO with or without test compound is transferred into a 384-well plate. Ras working solution is added to all wells of the test plate. SOS1 working solution is added to all wells except for those that are subsequently filled the inhibitor control solution. Upon incubation for about 10 minutes or longer, the fluorescence is measured with a M1000Pro plate reader (Tecan) using HTRF detection (excitation 337 nm, emission 1:620 nm, emission 2: 665 nm). Compounds are tested in duplicates at different concentrations (for example, 10 μM, 2.5 μM, 0.63 μM, 0.16 μM, 0.04 μM, 0.01 μM test compound). The ratiometric data (i.e., emission 2 divided by emission 1) is used to calculate IC50 values against Ras using GraphPad Prism (GraphPad software). Following this general procedure, samples were tested with or without a subject compound disclosed herein including compounds exemplified in Table 1 to assess their abilities to inhibit a mutant K-Ras relative to another mutant K-Ras or wildtype K-Ras. Signaling output measured in terms of IC50 values can be obtained, a ratio of IC50 against one mutant relative to another mutant can be calculated. For instance, a selective reduction of K-Ras G12D signaling output can be evidenced by a ratio greater than one. In particular, a selective reduction of K-Ras G12D signaling relative to K-Ras WT signaling is evidenced as the ratio of IC50 (against K-Ras WT) to IC50 (against K-Ras G12D) is greater than 1.

A further assay has as its target T2, KRASG12D (Homo sapiens, UniProt P01116, G12D).
T2 construct: made in house; host or cells: E. coli BL21 (DE3)
In words: Bio-Biochem-PPI-HTRF Ras-SOS1 interaction assay (KRAS G12D). The assay is classed as biochemical. The following applies: 5 nM. Here is the method: as §1

T2 sequence (P01116 1-188 isoform P01116-2 G12D): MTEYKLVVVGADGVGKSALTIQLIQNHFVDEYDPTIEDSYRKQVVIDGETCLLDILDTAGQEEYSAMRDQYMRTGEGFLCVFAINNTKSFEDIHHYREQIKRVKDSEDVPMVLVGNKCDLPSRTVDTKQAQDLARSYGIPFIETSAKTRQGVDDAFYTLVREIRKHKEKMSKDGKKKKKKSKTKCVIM
T1 sequence (P01116 1-188 isoform P01116-2): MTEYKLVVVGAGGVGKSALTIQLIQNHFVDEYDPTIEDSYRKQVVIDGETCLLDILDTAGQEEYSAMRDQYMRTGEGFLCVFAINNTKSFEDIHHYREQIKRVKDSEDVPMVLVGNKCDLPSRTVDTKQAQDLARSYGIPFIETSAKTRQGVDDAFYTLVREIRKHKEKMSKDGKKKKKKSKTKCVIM

As for `CC1(C)CN(c2nc(OC[C@@]34CCCN3C[C@H](F)C4)nc3c(F)c(-c4ccc(F)c5sc(N)c(C#N)c45)c(Cl)cc23)CC2(CNC2)O1` [compound 101, 2-amino-4-(6-chloro-4-(6,6-dimethyl-5-oxa-2,8-diazaspiro[3.5]nonan-8-yl)-8-fluoro-2-(((2R,7aS)-2-fluorotetrahydro-1H-pyrrolizin-7a(5H)-yl)methoxy)quinazolin-7-yl)-7-fluorobenzo[b]thiophene-3-carbonitrile], the IC50 on KRASwt and at KRASG12D was under 5 µM each time.
Turning to `N#Cc1c(N)sc2c(F)ccc(-c3c(Cl)cc4c(N5CCCC6(CN(C(=O)[C@@H]7C[C@H]7C#N)C6)C5)nc(OC[C@@]56CCCN5C[C@H](F)C6)nc4c3F)c12` [compound 104, 2-amino-4-(6-chloro-4-(2-((1R,2R)-2-cyanocyclopropane-1-carbonyl)-2,6-diazaspiro[3.5]nonan-6-yl)-8-fluoro-2-(((2R,7aS)-2-fluorotetrahydro-1H-pyrrolizin-7a(5H)-yl)methoxy)quinazolin-7-yl)-7-fluorobenzo[b]thiophene-3-carbonitrile], the concentration for half-maximal inhibition (IC50) against KRASwt and against KRASG12D was under 5 µM in each case.
Regarding `C[C@H](Oc1nc(N2CCCC3(CN(C(=O)[C@@H]4C[C@H]4C#N)C3)C2)c2cc(Cl)c(-c3ccc(F)c4sc(N)c(C#N)c34)c(F)c2n1)[C@@H]1CCCN1C` [compound 105, 2-amino-4-(6-chloro-4-(2-((1R,2R)-2-cyanocyclopropane-1-carbonyl)-2,6-diazaspiro[3.5]nonan-6-yl)-8-fluoro-2-((S)-1-((S)-1-methylpyrrolidin-2-yl)ethoxy)quinazolin-7-yl)-7-fluorobenzo[b]thiophene-3-carbonitrile], the IC50 on KRASwt and against KRASG12D was under 5 µM throughout.
With `Nc1nc2c(-c3c(Cl)cc4c(N5CCOC6(CNC6)C5)nc(OC[C@@]56CCCN5C[C@H](F)C6)nc4c3F)ccc(F)c2s1` [compound 107, 4-(6-chloro-8-fluoro-2-(((2R,7aS)-2-fluorotetrahydro-1H-pyrrolizin-7a(5H)-yl)methoxy)-4-(5-oxa-2,8-diazaspiro[3.5]nonan-8-yl)quinazolin-7-yl)-7-fluorobenzo[d]thiazol-2-amine], the IC50 against KRASwt and against KRASG12D was under 5 µM throughout.
As for `Cc1ccnc(C(C)C)c1-n1c(=O)nc(N2CCOC3(CNC3)C2)c2cc(F)c(-c3ccc(F)c4sc(N)c(C#N)c34)nc21` [compound 108, 2-amino-7-fluoro-4-(6-fluoro-1-(2-isopropyl-4-methylpyridin-3-yl)-2-oxo-4-(5-oxa-2,8-diazaspiro[3.5]nonan-8-yl)-1,2-dihydropyrido[2,3-d]pyrimidin-7-yl)benzo[b]thiophene-3-carbonitrile], the IC50 on KRASwt and against KRASG12D was at least 5 µM each time.
Regarding `C[C@H](Oc1nc(N2CCOC3(CNC3)C2)c2cc(Cl)c(-c3ccc(F)c4sc(N)c(C#N)c34)c(F)c2n1)[C@@H]1CCCN1C` [compound 110, 2-amino-4-(6-chloro-8-fluoro-2-((S)-1-((S)-1-methylpyrrolidin-2-yl)ethoxy)-4-(5-oxa-2,8-diazaspiro[3.5]nonan-8-yl)quinazolin-7-yl)-7-fluorobenzo[b]thiophene-3-carbonitrile], the IC50 on KRASwt and at KRASG12D was under 5 µM in each case.
For `N#Cc1c(N)sc2c(F)ccc(-c3c(Cl)cc4c(N5CCCC6(CCNC6)C5)nc(OC[C@@]56CCCN5C[C@H](F)C6)nc4c3F)c12` (stereo partly drawn) [compound 111, 2-amino-4-(6-chloro-8-fluoro-2-(((2R,7aS)-2-fluorotetrahydro-1H-pyrrolizin-7a(5H)-yl)methoxy)-4-(2,7-diazaspiro[4.5]decan-7-yl)quinazolin-7-yl)-7-fluorobenzo[b]thiophene-3-carbonitrile], the IC50 at KRASwt and against KRASG12D was under 5 µM each time.
For `Cc1ccnc(C(C)C)c1-n1c(=O)nc(N2CCOC3(CNC3)C2)c2cc(F)c(-c3c(O)cccc3F)nc21` [compound 112, 6-fluoro-7-(2-fluoro-6-hydroxyphenyl)-1-(2-isopropyl-4-methylpyridin-3-yl)-4-(5-oxa-2,8-diazaspiro[3.5]nonan-8-yl)pyrido[2,3-d]pyrimidin-2(1H)-one], the IC50 against KRASwt and against KRASG12D was at least 5 µM each time.
For `C#Cc1c(F)ccc2cc(O)cc(-c3ncc4c(N5CCCC6(CN(C(=O)[C@@H]7C[C@H]7C#N)C6)C5)nc(O[C@@H](C)[C@@H]5CCCN5C)nc4c3F)c12` [compound 113, (1R,2R)-2-(6-(7-(8-ethynyl-7-fluoro-3-hydroxynaphthalen-1-yl)-8-fluoro-2-((S)-1-((S)-1-methylpyrrolidin-2-yl)ethoxy)pyrido[4,3-d]pyrimidin-4-yl)-2,6-diazaspiro[3.5]nonane-2-carbonyl)cyclopropane-1-carbonitrile], the IC50 against KRASwt and against KRASG12D was under 5 µM each time.
For `Nc1nc2c(-c3c(Cl)cc4c(N5CCNC6(CNC6)C5)nc(OC[C@@]56CCCN5C[C@H](F)C6)nc4c3F)ccc(F)c2s1` [compound 116, 4-(6-chloro-8-fluoro-2-(((2R,7aS)-2-fluorotetrahydro-1H-pyrrolizin-7a(5H)-yl)methoxy)-4-(2,5,8-triazaspiro[3.5]nonan-8-yl)quinazolin-7-yl)-7-fluorobenzo[d]thiazol-2-amine], the IC50 against KRASwt and against KRASG12D was under 5 µM throughout.
On to `CN(C)C(=O)N1CC2(CCCN(c3nc(OC[C@@]45CCCN4C[C@H](F)C5)nc4c(F)c(-c5ccc(F)c6sc(N)c(C#N)c56)c(Cl)cc34)C2)C1` [compound 119, 6-(7-(2-amino-3-cyano-7-fluorobenzo[b]thiophen-4-yl)-6-chloro-8-fluoro-2-(((2R,7aS)-2-fluorotetrahydro-1H-pyrrolizin-7a(5H)-yl)methoxy)quinazolin-4-yl)-N,N-dimethyl-2,6-diazaspiro[3.5]nonane-2-carboxamide], for which the IC50 at KRASwt and against KRASG12D was under 5 µM throughout.
For the compound `N#Cc1c(N)sc2c(F)ccc(-c3c(Cl)cc4c(N5CCCC6(CN(C(=O)C7CC7)C6)C5)nc(OC[C@@]56CCCN5C[C@H](F)C6)nc4c3F)c12` [compound 120, 2-amino-4-(6-chloro-4-(2-(cyclopropanecarbonyl)-2,6-diazaspiro[3.5]nonan-6-yl)-8-fluoro-2-(((2R,7aS)-2-fluorotetrahydro-1H-pyrrolizin-7a(5H)-yl)methoxy)quinazolin-7-yl)-7-fluorobenzo[b]thiophene-3-carbonitrile], the IC50 on KRASwt and against KRASG12D was under 5 µM in each case.
As to `C[C@H](Oc1nc(N2CCCC3(CNC3)C2)c2cc(Cl)c(-c3ccc(F)c4sc(N)c(C#N)c34)c(F)c2n1)[C@@H]1CCCN1C` [compound 122, 2-amino-4-(6-chloro-8-fluoro-2-((S)-1-((S)-1-methylpyrrolidin-2-yl)ethoxy)-4-(2,6-diazaspiro[3.5]nonan-6-yl)quinazolin-7-yl)-7-fluorobenzo[b]thiophene-3-carbonitrile], the concentration for half-maximal inhibition (IC50) at KRASwt and at KRASG12D was under 5 µM each time.
Regarding `C[C@H](Oc1nc(N2CCCC3(CN(C(=O)C(F)(F)F)C3)C2)c2cc(Cl)c(-c3ccc(F)c4sc(N)c(C#N)c34)c(F)c2n1)[C@@H]1CCCN1C` [compound 123, 2-amino-4-(6-chloro-8-fluoro-2-((S)-1-((S)-1-methylpyrrolidin-2-yl)ethoxy)-4-(2-(2,2,2-trifluoroacetyl)-2,6-diazaspiro[3.5]nonan-6-yl)quinazolin-7-yl)-7-fluorobenzo[b]thiophene-3-carbonitrile], the IC50 against KRASwt and at KRASG12D was under 5 µM in each case.
On to `CN1CCC[C@H]1COc1nc(N2CCCC3(CN(C(N)=O)C3)C2)c2cc(Cl)c(-c3cccc4sc(N)nc34)c(F)c2n1` [compound 124, 6-(7-(2-aminobenzo[d]thiazol-4-yl)-6-chloro-8-fluoro-2-(((S)-1-methylpyrrolidin-2-yl)methoxy)quinazolin-4-yl)-2,6-diazaspiro[3.5]nonane-2-carboxamide], for which the IC50 on KRASwt and against KRASG12D was under 5 µM in each case.
Consider `N#Cc1c(N)sc2c(F)ccc(-c3c(Cl)cc4c(N5CCCC6(CN(C(=O)C(F)F)C6)C5)nc(OC[C@@]56CCCN5C[C@H](F)C6)nc4c3F)c12` [compound 125, 2-amino-4-(6-chloro-4-(2-(2,2-difluoroacetyl)-2,6-diazaspiro[3.5]nonan-6-yl)-8-fluoro-2-(((2R,7aS)-2-fluorotetrahydro-1H-pyrrolizin-7a(5H)-yl)methoxy)quinazolin-7-yl)-7-fluorobenzo[b]thiophene-3-carbonitrile], for which the IC50 against KRASwt and against KRASG12D was under 5 µM throughout.
